Here are results for 1 molecule from patent publication US20260199564A1, “METHOD OF PREVENTING BLOOD COAGULATION AND DRUG-ELUTING IMPLANT FOR PERCUTANEOUS CORONARY INTERVENTION” (priority 2023, published 2026).

Molecules are shown by their SMILES.

One series deals with T1, CYP2C9 (Homo sapiens, UniProt P11712).
T1 construct: with pooled human liver microsomes; from tissue; host or cells: pooled human liver microsomes
As to the kind of experiment: Cytochrome P450 inhibition in human liver microsomes using LC-MS/MS, CYP2C9. It is filed as in vitro ADME. How it is done:
In IC50 shift experiments, CK (0.2 μL prepared in DMSO) was pre-incubated for 30 min at 37° C., at 8 different concentrations, with pooled human liver microsomes (0.1-1 mg/mL, depending on which enzyme was assessed) in the absence or presence of 1 mM NADPH in 100 μL of potassium phosphate buffer (100 mM, pH 7.4) and MgCl2 (2.5 mM). After the pre-incubation, a substrate mixture containing a probe substrate in 100 μL of potassium phosphate buffer (100 mM, pH 7.4), MgCl2 (2.5 mM), and NADPH (1 mM) was added for measurement of the corresponding P450 activities. Incubations were terminated by addition of 200 μL methanol. Samples were then extracted and centrifuged and the supernatant was subjected to validated LC-MS/MS analysis.
(Liver microsomes are vesicles of endoplasmic reticulum, rich in cytochrome P450 enzymes.)

A further series relates to IL-6. In words: LPS-induced IL-6 expression in HUVECs. It is filed as cell-based, human. The note with it: 1, 3, 10 μM for 1 h prior to LPS (1 μg/ml) stimulation for 24 h. How it is done: HUVECs were treated for 1 h with ginsenoside CK (1 μM, 3 μM, and 10 μM) prior to LPS (1 μg/ml) stimulation for 24 h (A) IL-6 (B) TNF-αexpression. Values are means±SEM of 3 independent experiments. Statistical significance assessed by one-way ANOVA followed by Scheffe post-hoc test for multiple comparisons (***P<0.01, *P<0.05 vs LPS).
Treatment of HUVECs with LPS (1 μg/ml) increased IL-6 and TNF-αexpression. To determine whether LPS-induced IL-6 and TNF-αexpression was affected by ginsenoside CK, HUVECs were treated for 1 h with ginsenoside CK (1 μM, 3 μM, and 10 μM) prior to LPS (1 μg/ml) stimulation for 24 h.

T1 sequence (P11712 whole entry): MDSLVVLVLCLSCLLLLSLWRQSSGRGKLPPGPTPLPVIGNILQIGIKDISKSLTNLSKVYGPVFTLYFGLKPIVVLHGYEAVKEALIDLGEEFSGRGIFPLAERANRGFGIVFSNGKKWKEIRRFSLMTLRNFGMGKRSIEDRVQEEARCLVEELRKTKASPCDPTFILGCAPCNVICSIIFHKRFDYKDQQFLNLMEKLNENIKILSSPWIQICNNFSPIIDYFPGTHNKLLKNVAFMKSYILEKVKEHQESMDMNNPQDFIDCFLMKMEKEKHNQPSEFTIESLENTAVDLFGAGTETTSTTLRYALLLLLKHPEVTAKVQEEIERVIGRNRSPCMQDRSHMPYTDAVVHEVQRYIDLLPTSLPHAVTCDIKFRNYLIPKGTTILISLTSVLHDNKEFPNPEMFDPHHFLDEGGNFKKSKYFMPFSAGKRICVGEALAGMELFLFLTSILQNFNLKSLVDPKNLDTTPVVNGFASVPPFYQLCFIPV

Turning to `CC(C)=CCC[C@](C)(O[C@@H]1O[C@H](CO)[C@@H](O)[C@H](O)[C@H]1O)[C@H]1CC[C@]2(C)[C@@H]1[C@H](O)C[C@@H]1[C@@]3(C)CC[C@H](O)C(C)(C)[C@@H]3CC[C@]12C` [CK, Ginsenoside compound K], the “inhibition at concentration of 50 μM” value on CYP2C9 (50 μM, 30 min pre-incubation in the presence or absence of NADPH) is recorded as “did not inhibit”. At CYP2C9 (pooled human liver microsomes, substrate Diclofenac), the half-maximal inhibitory concentration (IC50) is > 50 µM. Besides, in the series on IL-6, the “LPS-induced IL-6 expression” value is given as “significantly decreased”.

One may read the IC50 as the midpoint of a concentration-inhibition curve. A low value points to higher potency.
